Measured values reported in ChEMBL document CHEMBL5052843, “Inhibitors of apol1 and methods of using same” (2020).

test system: Trypanosoma brucei brucei; assay: Antitrypanosomal activity against Trypanosoma brucei brucei assessed as trypanosome lysis using recombinant APOL1 protein G1 variant and measured by Alamar blue based fluorescene assay; format: functional, organism-based

Row | Structure (SMILES) | IC50 [nM]
1 | O=C(CCc1c(-c2ccccc2)[nH]c2cccc(F)c12)N[C@@H]1C(=O)NC[C@H]1O | 250
2 | O=C(CCc1c(-c2ccc(C(F)F)cc2)[nH]c2ccccc12)N[C@@H]1C(=O)NC[C@H]1O | < 250
3 | O=C(CCc1c(-c2ccc(F)cc2)[nH]c2c(F)ccc(F)c12)N[C@H]1CCNC1=O | > 1000
4 | CC1(NC(=O)CCc2c(-c3ccc(F)cc3)[nH]c3c(F)cc(F)cc23)CCNC1=O (stereo not given) | < 250

biological target: Apolipoprotein L1 (Homo sapiens, UniProt O14791); assay: Inhibition of APOL1 G1 variant in human HEK293-T-REx cells measured by Thallium assay; format: cell-based

Row | IC50 [nM] | Structure (SMILES)
5 | < 250 | O=C(CCc1c(-c2ccc(F)cc2)[nH]c2cc(F)c(F)cc12)N[C@@H]1C(=O)NC[C@H]1O
6 | > 1000 | COc1ccc2[nH]c(-c3ccc(F)cc3)c(CCC(=O)N[C@H]3CCNC3=O)c2c1
7 | 250 | O=C(CCc1c(-c2ccc(F)cc2)[nH]c2c(F)cc(Cl)cc12)N[C@@H]1CCNC1=O
8 | < 250 | Cc1cccc2c(CCC(=O)N[C@@H]3C(=O)NC[C@H]3O)c(-c3ccccc3)[nH]c12
9 | 250 | O=C(CCc1c(-c2ccccc2)[nH]c2c(C3CCOC3)cccc12)N[C@@H]1C(=O)NC[C@H]1O (stereo not given in full)
10 | 250 | O=C(CCc1c(-c2ccc(F)cc2)[nH]c2ccccc12)N[C@H]1C(=O)NC[C@H]1O
11 | > 1000 | C[C@H]1CNC(=O)[C@H]1NC(=O)CCc1c(-c2ccc(F)cc2)[nH]c2c(F)cc(F)cc12
12 | 250 | O=C(CCc1c(-c2ccc(F)cc2)[nH]c2c(F)c(F)ccc12)N[C@H]1CCNC1=O
13 | 250 | COc1cc(F)cc2c(CCC(=O)N[C@H]3CCNC3=O)c(-c3ccc(F)cc3)[nH]c12
14 | 250 | O=C(CCc1c(-c2ccc(F)cc2)[nH]c2c(F)cc(F)cc12)N[C@H]1C(=O)NC[C@@H]1O
15 | > 1000 | O=C(N[C@H]1CCNC1=O)[C@H](O)Cc1c(-c2ccccc2)[nH]c2c(F)cc(F)cc12
16 | < 250 | Cc1ccc(-c2[nH]c3c(F)cc(F)cc3c2CCC(=O)N[C@H]2CCNC2=O)cc1
17 | 250 | Cc1cc(F)ccc1-c1[nH]c2ccccc2c1CCC(=O)N[C@@H]1C(=O)NC[C@H]1O
18 | < 250 | O=C(CCc1c(-c2ccccc2)[nH]c2c(Cl)cccc12)N[C@@H]1C(=O)NC[C@H]1O
19 | < 250 | O=C(CCc1c(-c2ccc(F)cc2)[nH]c2c(Cl)cc(F)cc12)N[C@H]1CCNC1=O
20 | 250 | CC(C)(O)c1cccc2c(CCC(=O)N[C@@H]3C(=O)NC[C@H]3O)c(-c3ccccc3)[nH]c12

Row | IC50 [nM] | Structure (SMILES)
21 | < 250 | Cc1c(F)ccc2c(CCC(=O)N[C@@H]3C(=O)NC[C@H]3O)c(-c3ccccc3)[nH]c12
22 | < 250 | O=C(CCc1c(-c2ccc(F)cc2)[nH]c2c(C(F)(F)F)cccc12)N[C@@H]1C(=O)NC[C@H]1O
23 | > 1000 | CC(CC(=O)N[C@H]1CCNC1=O)c1c(-c2ccc(F)cc2)[nH]c2c(F)cc(F)cc12 (stereo not given in full)
24 | > 1000 | O=C(CCc1c(-c2ccc(F)cc2)[nH]c2ccccc12)N[C@@H]1C(=O)NC[C@@H]1O
25 | < 250 | O=C(CCc1c(-c2ccccc2)[nH]c2c(F)cc(F)cc12)N[C@H]1CCNC1=O
26 | < 250 | O=C(CCc1c(-c2ccc(F)cc2)[nH]c2c(F)cc(Cl)cc12)N[C@H]1CCNC1=O
27 | < 250 | O=C(CCc1c(-c2ccc(Cl)cc2)[nH]c2c(Cl)cccc12)N[C@@H]1C(=O)NC[C@H]1O
28 | 250 | C[C@@H](Cc1c(-c2ccc(F)cc2)[nH]c2c(F)cc(F)cc12)C(=O)N[C@@H]1C(=O)NC[C@H]1O
29 | > 1000 | O=C(CCc1c(-c2ccc(F)cc2)[nH]c2c(F)cc(F)cc12)N[C@H]1C[C@H](CF)NC1=O
30 | < 250 | O=C(CCc1c(-c2ccccc2)[nH]c2c(C(F)(F)F)cc(F)cc12)N[C@@H]1C(=O)NC[C@H]1O
31 | > 1000 | CC(CC(=O)N[C@@H]1C(=O)NC[C@H]1O)c1c(-c2ccc(F)cc2)[nH]c2c(F)cc(F)cc12 (stereo not given in full)
32 | 250 | CC(C)c1cccc2c(CCC(=O)N[C@@H]3C(=O)NC[C@H]3O)c(-c3ccccc3)[nH]c12
33 | > 1000 | N#Cc1cccc(-c2[nH]c3ccc(F)cc3c2CCC(=O)N[C@H]2CCNC2=O)c1
34 | > 1000 | O=C(CCc1c(-c2ccc(F)cc2)[nH]c2cc(O)ccc12)N[C@H]1C(=O)NC[C@@H]1O
35 | < 250 | O=C(CSc1c(-c2ccc(F)cc2)[nH]c2ccccc12)N[C@@H]1C(=O)NC[C@H]1O
36 | > 1000 | O=C(N[C@@H]1C(=O)NC[C@H]1O)[C@H](O)Cc1c(-c2ccc(F)cc2)[nH]c2c(F)cc(F)cc12

Further lines, the compound ahead of its results:

Row | Structure (SMILES) | IC50 [nM]
37 | O=C(CCc1c(-c2ccccc2)[nH]c2c(F)cccc12)N[C@H]1CCNC1=O | 250
38 | O=C(CCc1c(-c2ccccc2)[nH]c2cccc(F)c12)N[C@@H]1C(=O)NC[C@H]1O | < 250
39 | O=C(CCc1c(-c2ccc(F)cc2)[nH]c2c(F)cc(F)cc12)NC1CC2(CC2)NC1=O (stereo not given) | > 1000
40 | O=C(CCc1c(-c2ccc(C(F)F)cc2)[nH]c2ccccc12)N[C@@H]1C(=O)NC[C@H]1O | < 250
41 | Cc1cc(F)c2[nH]c(-c3ccc(F)cc3)c(CCC(=O)N[C@H]3CCNC3=O)c2c1 | 250
42 | O=C(CCc1c(-c2ccc(F)cc2)[nH]c2c(F)ccc(F)c12)N[C@H]1CCNC1=O | > 1000
43 | CC1(NC(=O)CCc2c(-c3ccc(F)cc3)[nH]c3c(F)cc(F)cc23)CCNC1=O (stereo not given) | 250
44 | O=C(CCc1c(-c2ccc(F)cc2)[nH]c2c(F)cc(OC(F)F)cc12)N[C@@H]1C(=O)NC[C@H]1O | < 250
45 | O=C(CCc1c(-c2ccc(F)cc2)[nH]c2c(F)cc(F)cc12)N[C@H]1C(=O)NC[C@H]1O | 250
46 | O=C(CCc1c(-c2ccc(F)cc2)[nH]c2c(F)c(F)c(F)cc12)N[C@@H]1C(=O)NC[C@H]1O | < 250
47 | Cc1cc(F)cc2c(CCC(=O)N[C@H]3CCNC3=O)c(-c3ccc(F)cc3)[nH]c12 | < 250
48 | O=C(CCc1c(-c2ccccc2)[nH]c2c(C3CC3)cccc12)N[C@@H]1C(=O)NC[C@H]1O | < 250
49 | O=C(CCc1c(-c2ccc(F)cc2)[nH]c2c(F)cc(F)cc12)N[C@H]1C[C@@H](CF)NC1=O | > 1000
50 | Cc1c(F)ccc2c(CCC(=O)N[C@@H]3C(=O)NC[C@H]3O)c(-c3ccc(F)cc3)[nH]c12 | < 250
51 | C=Cc1cccc2c(CCC(=O)N[C@@H]3C(=O)NC[C@H]3O)c(-c3ccccc3)[nH]c12 | < 250
52 | COc1cccc2c(CCC(=O)N[C@H]3CCNC3=O)c(-c3ccc(F)cc3)[nH]c12 | > 1000
53 | CC(=O)O[C@@H]1CNC(=O)[C@H]1NC(=O)CCc1c(-c2ccc(F)cc2)[nH]c2c(F)cc(F)cc12 | > 1000
54 | Cc1cccc2c(CCC(=O)N[C@@H]3C(=O)NC[C@H]3O)c(-c3ccc(F)cc3)[nH]c12 | < 250
55 | O=C(CCc1c(-c2ccccc2)[nH]c2c(Cl)cc(F)cc12)N[C@@H]1C(=O)NC[C@H]1O | < 250
56 | O=C(CCc1c(-c2ccc(F)cc2)[nH]c2c(C(F)F)cc(F)cc12)N[C@@H]1C(=O)NC[C@H]1O | < 250
57 | O=C(CCc1c(-c2ccc(F)cc2)[nH]c2ccccc12)N[C@H]1C(=O)NC[C@@H]1O | > 1000
58 | C[C@@H](Cc1c(-c2ccc(F)cc2)[nH]c2c(F)cc(F)cc12)C(=O)N[C@H]1CCNC1=O | > 1000
59 | O=C(CCc1c(-c2ccc(OC(F)F)cc2)[nH]c2ccccc12)N[C@@H]1C(=O)NC[C@H]1O | < 250
60 | O=C(CCc1c(-c2ccccc2)[nH]c2c(C3=CCOC3)cccc12)N[C@@H]1C(=O)NC[C@H]1O | > 1000
61 | O=C1NC[C@@H](O)[C@@H]1NC(=O)[C@@H](O)Cc1c(-c2ccc(F)cc2)[nH]c2c(F)cc(F)cc12 | > 1000
62 | Cc1ccc(-c2[nH]c3c(F)cc(F)cc3c2CCC(=O)N[C@@H]2C(=O)NC[C@H]2O)cc1 | < 250
63 | C=C(C)c1cccc2c(CCC(=O)N[C@@H]3C(=O)NC[C@H]3O)c(-c3ccccc3)[nH]c12 | 250
64 | Cc1ccc(-c2[nH]c3c(F)cc(F)cc3c2CCC(=O)N[C@@H]2CCNC2=O)cc1 | < 250
65 | O=C(CCc1c(-c2ccc(F)cc2)[nH]c2ccc(Cl)cc12)N[C@@H]1C(=O)NC[C@H]1O | < 250
